The subject of this assay is TEAD-dependent transcription. The experiment in a line: TEAD-dependent transcription cell-based reporter assay (MSTO-211H+12XGTIIC luciferase). Also on record: species or system human. The note with it: Homo sapiens; MSTO-211H+12XGTIIC reporter cells, 24 hours compound incubation, luminescence normalized to viability; read-out: MSTO-211H GMean IC50 (uM) Cell Assay Reporter Cell Variant: TEAD. An excerpt: The human mesothelioma cell line MSTO-211H was stably transfected with a pGL4.21 plasmid containing a synthetic promoter with 12 copies of the GTIIC TEAD response element that drives the expression of a luciferase reporter gene^1 using Lipofectamine transfection reagent (Thermo Fisher). Transfected cells were selected using puromycin and single cell clones expressing this construct (referred to as MSTO-211H+12XGTIIC) were generated by limiting dilution. MSTO-211H cells was characterized by genetic alterations in key components of the Hippo pathway^2, resulting in up-regulation of YAP/TEAD-mediated transcription. […] To evaluate TEAD inhibitors, the MSTO-211H+12XGTIIC cell line was seeded in a 96-well plate in 50 μL of culture media at 1×10^4 cells per well and incubated at 37° C. overnight. Serial dilutions of compounds (in total volume of 50 μL of culture media) were added to the cells and incubated at 37° C. for 24 hours. Each plate included cells treated with DMSO as high controls and cells treated with 20 μM of the reference compound K-975 (a known TEAD inhibitor)^3 as low controls. Cell viability was assayed by the addition of 25 μL of CellTiter-Fluor reagent (Promega) followed by a 30-minute incubation at 37° C. and quantification of the fluorescence signal (Ex400/Em505). Subsequently, luciferase expression was assayed by the addition of 25 μL of ONE-Glo reagent (Promega) followed by a 10-minute incubation at room temperature and quantification of the luminescence signal. The luminescence signal was normalized to the fluorescence signal to correct for any loss in cell viability over the 24-hour compound incubation period. The percentage of inhibition of normalized luminescence signal, indicative of compound-mediated inhibition of TEAD-dependent transcription, at individual compound concentrations relative to high and low controls was calculated. The data were analyzed by using nonlinear regression to generate IC50 values for individual compounds.
For orientation: A reporter such as luciferase makes a cellular process visible.
Usually IC50 stands for the concentration needed to halve the response being measured. Consider `Nc1nc2ccc(C(=O)N3CCc4c(cccc4C(=O)c4ccc(C(F)(F)F)cc4)C3)cc2[nH]1` [O-0069, (2-amino-1H-benzo[d]imidazol-6-yl)(5-(4-(trifluoromethyl)benzoyl)-3,4-dihydroisoquinolin-2(1H)-yl)methanone], for which the concentration for half-maximal inhibition (IC50) was 0.001 to 10 µM.

Consider `C[C@@H](NC(=O)c1ccccn1)C(=O)N1CCc2ccc(-c3ccc(C(F)(F)F)cc3)cc2C1` [O-0177, (R)-N-(1-oxo-1-(7-(4-(trifluoromethyl)phenyl)-3,4-dihydroisoquinolin-2(1H)-yl)propan-2-yl)picolinamide], for which the half-inhibitory concentration (IC50) was in the range of 0.001 to 10 µM.

As for `O=C(c1ccc(C(F)(F)F)cc1)c1cccc2c1CCN(C(=O)c1ccc3nc[nH]c3c1)C2` [O-0074, (2-(1H-benzo[d]imidazole-6-carbonyl)-1,2,3,4-tetrahydroisoquinolin-5-yl)(4-(trifluoromethyl)phenyl)methanone], the IC50 was in the range of 0.001 to 10 µM.

Take `C[C@H](NC(=O)OC(C)(C)C)C(=O)N1CCc2c(cccc2-c2ccc(C(F)(F)F)cc2)C1` [O-0195, tert-butyl (S)-(1-oxo-1-(5-(4-(trifluoromethyl)phenyl)-3,4-dihydroisoquinolin-2(1H)-yl)propan-2-yl)carbamate]: the IC50 is over 100 µM.

For the compound `C=CC(=O)N1CCc2c(cccc2-c2ccc(C(F)(F)F)cc2)C1` [O-0116, 1-(5-(4-(trifluoromethyl)phenyl)-3,4-dihydroisoquinolin-2(1H)-yl)prop-2-en-1-one], the concentration for half-maximal inhibition (IC50) fell in the range of 0.001 to 10 µM.

Regarding `C[C@@H](NS(C)(=O)=O)C(=O)N1CCc2c(cccc2-c2ccc(C(F)(F)F)cc2)C1` [O-0185, (R)-N-(1-oxo-1-(5-(4-(trifluoromethyl)phenyl)-3,4-dihydroisoquinolin-2(1H)-yl)propan-2-yl)methanesulfonamide], the IC50 was 0.001 to 10 µM.

For the compound `O=C(c1ccc(C(F)(F)F)cc1)c1cccc2c1CCN(C(=O)c1ccc3[nH]ccc3c1)C2` [O-0075, (2-(1H-indole-5-carbonyl)-1,2,3,4-tetrahydroisoquinolin-5-yl)(4-(trifluoromethyl)phenyl)methanone], the half-inhibitory concentration (IC50) lay within 0.001 to 10 µM.

Take `O=C(c1ccc(C(F)(F)F)cc1)c1cccc2c1CCN(C(=O)c1ccc3nc(C(F)(F)F)[nH]c3c1)C2` [O-0073, (2-(trifluoromethyl)-1H-benzo[d]imidazol-6-yl)(5-(4-(trifluoromethyl)benzoyl)-3,4-dihydroisoquinolin-2(1H)-yl)methanone]: the concentration for half-maximal inhibition (IC50) fell in the range of 0.001 to 10 µM.

`O=C(CCS(=O)(=O)C(F)(F)F)N1CCc2c(Cc3ccc(C(F)(F)F)cc3)cccc2C1` [O-0001, 1-(5-(4-(trifluoromethyl)benzyl)-3,4-dihydroisoquinolin-2(1H)-yl)-3-((trifluoromethyl)sulfonyl)propan-1-one]: the IC50 fell in the range of 0.001 to 10 µM.

For `CS(=O)(=O)CCC(=O)N1CCc2c(cccc2C(O)c2ccc(C(F)(F)F)cc2)C1` (stereo not shown) [O-0082, 1-(5-(hydroxy(4-(trifluoromethyl)phenyl)methyl)-3,4-dihydroisoquinolin-2(1H)-yl)-3-(methylsulfonyl)propan-1-one], the IC50 lay in the range of 0.001 to 10 µM.

On to `O=C(Cc1c[nH]cn1)N1CCc2c(Cc3ccc(C(F)(F)F)cc3)cccc2C1` [O-0080, 2-(1H-imidazol-4-yl)-1-(5-(4-(trifluoromethyl)benzyl)-3,4-dihydroisoquinolin-2(1H)-yl)ethan-1-one], for which the IC50 was in the range of 0.001 to 10 µM.

`O=C(Cc1cscn1)N1CCc2c(cccc2C(F)c2ccc(C(F)(F)F)cc2)C1` (stereo not shown) [O-0056, 1-(5-(fluoro(4-(trifluoromethyl)phenyl)methyl)-3,4-dihydroisoquinolin-2(1H)-yl)-2-(thiazol-4-yl)ethan-1-one]: the IC50 was in the range of 0.001 to 10 µM.

For the compound `CS(=O)(=O)CCC(=O)N1CCc2c(cccc2C(F)c2ccc(C(F)(F)F)cc2)C1` (stereo not shown) [O-0077, 1-(5-(fluoro(4-(trifluoromethyl)phenyl)methyl)-3,4-dihydroisoquinolin-2(1H)-yl)-3-(methylsulfonyl)propan-1-one], the half-maximal inhibitory concentration (IC50) lay in the range of 0.001 to 10 µM.

The values above are taken from patent publication US20250376445A1, “COMPOUNDS AND METHODS FOR YAP/TEAD MODULATION AND INDICATIONS THEREFOR” (OPNA BIO SA, priority 2023, published 2025).
